Paper PMC9585581, “Developing Photoaffinity Probes for Dopamine Receptor D2 to Determine Targets of Parkinson’s Disease Drugs” (ACS Chemical Neuroscience, 2022)

Test system: DRD2-expressing cell line (DRD2-Strep Tag II fusion HEK293T)
Experiment: Colocalization analysis via confocal microscopy of photo-cross-linked, dye-clicked probe in cells
Format: cell-based, human
Details: probe 5 μM, Alexa Fluor 555 azide clicked
Experimental: After the biochemical characterization of the dynamic interaction between the probe and target, we set out to characterize the static interaction: colocalization of probe and receptor in cells, with an emphasis on both on- and off-target labeling. Specifically, due to the known propensity for photo-cross-linking groups to nonspecifically label, we wanted a holistic view of how the probes interacted with whole cells. Thus, we treated our DRD2-expressing cell line with a 5 μM solution of the probe, photo-cross-linked, “clicked” on an azido fluorophore, and labeled the DRD2 receptor via an antibody conjugated to a complementary fluorophore (Figure 4a). Our results (Figure 4b) indicate that there is indeed background labeling with the probes. […] We therefore proceeded to quantify the specific vs nonspecific binding of the probe.
Figure 4 Photo-cross-linking of dye-clicked probe: confocal microscopy. (a) Schematic of the methodology used in the labeling process. […]
HEK293T cells and a stable HEK293T-derived cell line-expressing DRD2-Strep Tag II fusion were maintained in DMEM supplemented with 10% FBS, 100 U/mL penicillin, and 100 μg/mL streptomycin in a humidified atmosphere at 37 °C in 5% CO2. […] The cells were then washed 3 times with TBS and imaged for Alexa Fluor 488 fluorescence and AF555 fluorescence using a Zeiss LSM 980 with Airyscan 2. […]

Row | SMILES | labeling of DRD2-expressing cells (confocal microscopy)
1 | C#CCOc1ccc(C(=O)c2ccc(CNCCc3cccc4c3CC(=O)N4)cc2)cc1 [Compound 5, 4-(2-((4-(4-(Prop-2-yn-1-yloxy)benzoyl)benzyl)amino)ethyl)indolin-2-one] | higher avidity relative to the other probes
2 | C#CCOc1ccc(C(=O)c2ccc(CN[C@H]3CCc4nc(N)sc4C3)cc2)cc1 [Compound 7, (S)-(4-(((2-Amino-4,5,6,7-tetrahydrobenzo[d]thiazol-6-yl)amino)methyl)phenyl)(4-(prop-2-yn-1-yloxy)phenyl)methanone] | higher avidity relative to the other probes
